{"source": "patent US6440659B1", "about": "“Inhibitors of retroviral protease as inducers of reversible insulin resistance in vitro and in vivo” (Washington University, priority 2000, dated 2002)", "key": {"Glut4 [1]": {"molecular_target": "T1, Glut4 (Rattus norvegicus, UniProt P19357)", "T1 construct": "expressed in transfected cells; host or cells: Xenopus laevis oocytes, microinjected with in vitro transcribed mRNA", "T1 sequence (P19357 1-509)": "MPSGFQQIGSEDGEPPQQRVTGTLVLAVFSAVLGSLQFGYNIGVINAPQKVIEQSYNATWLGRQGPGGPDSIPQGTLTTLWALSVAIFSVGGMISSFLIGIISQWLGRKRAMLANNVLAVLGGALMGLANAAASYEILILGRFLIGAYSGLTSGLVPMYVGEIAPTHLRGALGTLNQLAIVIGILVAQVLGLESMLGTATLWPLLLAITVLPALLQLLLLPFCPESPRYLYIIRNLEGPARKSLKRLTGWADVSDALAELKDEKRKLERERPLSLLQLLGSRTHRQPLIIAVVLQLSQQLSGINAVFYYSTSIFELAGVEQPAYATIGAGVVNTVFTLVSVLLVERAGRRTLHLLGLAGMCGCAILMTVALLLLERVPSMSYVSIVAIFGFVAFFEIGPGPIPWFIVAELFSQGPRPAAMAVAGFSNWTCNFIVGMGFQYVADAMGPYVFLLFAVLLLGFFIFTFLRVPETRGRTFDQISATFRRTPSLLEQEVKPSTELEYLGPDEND", "test": "[3H]-2-deoxyglucose uptake in Xenopus oocytes expressing Glut4", "format": "cell-based", "conditions": "for inhibition at 50 µM: 50 μM (FIG. 3B)", "description": "(§1) FIG. 3A. Xenopus oocytes heterologously expressing either Glut1 or Glut4 isoforms were used for [^3H]-2-deoxyglucose uptake measurement in Barth's Saline at 22° C. for 30 min. […] Plotted are the mean uptake from 15-20 oocytes±S.E. [* indicates p<0.01 compared with control (ANOVA with Fischer's PLSD posthoc analysis).]\n(§2) FIG. 3B. Glucose uptake in X. laevis oocytes as described above. […] The data are normalized to the uptake from the control oocytes which were not exposed to protease inhibitor. [* indicates p<0.0001 compared with control (ANOVA with Fischer's PLSD posthoc analysis).]\n(§3) Xenopus laevis oocytes were prepared and injected as described previously (Keller et al., 1989) with 50 ng of either Glut1 or Glut4 mRNA synthesized in vitro (Megascript RNA synthesis kit, Ambion). After a three day incubation in Barth=s saline containing albumin at 18° C., groups of 15-20 oocytes were washed and [^3H]-2-deoxyglucose (50 μM) uptake measurements were performed in Barth's saline at 22° C. for 30 minutes."}, "3T3-L1 adipocytes": {"tested_on": "3T3-L1 adipocytes", "test": "[3H]-2-deoxyglucose uptake in 3T3-L1 adipocytes, basal and insulin-stimulated", "format": "cell-based", "conditions": "for effect on insulin-stimulated glucose uptake relative to indinavir: 50 μM (FIG. 1B); for effect on basal glucose uptake: basal conditions", "description": "FIG. 1A. […] Results from three experiments were normalized to the value obtained from insulin-stimulated control cells and are shown as the mean±S.E. (n=6). FIG. 1B. […] Results were normalized to the value obtained from insulin-stimulated control cells and are shown as the mean±S.E. (n=3). 3T3-L1 fibroblasts obtained from the American Type Culture Collection were grown to confluence and 48 h later subjected to the differentiation protocol described previously (Tordjman et al. 1989). Mature 3T3-L1 adipocytes were maintained in DMEM supplemented with 10% fetal bovine serum and used 10 to 15 d post-differentiation. 3T3-L1 adipocytes grown in 3.5 cm dishes were serum-starved for at least 3 hours and then washed three times with Krebs-Ringer phosphate buffer. […] Stock solutions of indinavir and amprenavir were made in water. Ritonavir was dissolved in ethanol."}, "[2]": {"test": "Glucose tolerance after acute indinavir administration in rats", "format": "in vivo, male Wistar rats", "description": "(§4) Male Wistar rats (Charles River Corp) weighing between 250-400 g were used for all experiments described below. Glucose measurements were made using a Glucometer Elite Glucometer (Bayer Corporation, Diagnostics Division, Tarrytown, N.Y.). […] Jugular vein and carotid artery catheters were fabricated using microrenathane tubing (Braintree Scientific) for venous catheters and PE50 tubing (Becton Dickenson) for arterial catheters. Catheters were inserted surgically under methohexital (Jones Pharma Inc, St. Louis, Mo.) anesthesia. Humulin R insulin (Eli Lilly, Indianapolis, Ind.) was used where indicated."}, "Glut1 [3]": {"molecular_target": "T2, Glut1 (Homo sapiens, UniProt P11166)", "T2 construct": "expressed in transfected cells; host or cells: Xenopus laevis oocytes, microinjected with in vitro transcribed mRNA", "T2 sequence (P11166 1-492)": "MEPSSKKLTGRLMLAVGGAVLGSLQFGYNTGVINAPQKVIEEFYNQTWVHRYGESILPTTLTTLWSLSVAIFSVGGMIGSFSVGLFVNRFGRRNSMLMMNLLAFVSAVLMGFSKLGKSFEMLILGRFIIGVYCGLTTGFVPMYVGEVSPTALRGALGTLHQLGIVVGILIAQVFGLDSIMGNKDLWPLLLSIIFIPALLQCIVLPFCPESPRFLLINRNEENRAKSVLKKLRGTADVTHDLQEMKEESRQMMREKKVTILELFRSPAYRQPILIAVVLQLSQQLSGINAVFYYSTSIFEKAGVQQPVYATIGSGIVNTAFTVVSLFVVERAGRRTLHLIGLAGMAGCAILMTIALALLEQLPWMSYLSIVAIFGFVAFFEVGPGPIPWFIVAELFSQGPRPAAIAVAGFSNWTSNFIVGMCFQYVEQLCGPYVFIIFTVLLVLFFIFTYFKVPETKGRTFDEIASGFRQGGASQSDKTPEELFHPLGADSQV", "test": "[3H]-2-deoxyglucose uptake in Xenopus oocytes expressing Glut1", "format": "cell-based", "conditions": "22° C., 30 min", "description": "as §1, §2, §3"}, "[4]": {"test": "Euglycemic hyperinsulinemic clamp (peripheral insulin sensitivity) in rats", "format": "in vivo, male Wistar rats", "conditions": "for reduction in peripheral insulin sensitivity (average GIR) compared with controls: infusion started 30 min before clamp, p<0.05", "description": "Jugular vein and carotid artery catheters were inserted, at least 4 days prior to each experiment, into 200-400 gm male Wistar rats under methohexital anesthesia. Following an overnight fast, rats were infused with insulin (40 mU/kg/min) and 50% dextrose through the venous catheter. Blood was sampled every 5-10 minutes through the arterial catheter and serum glucose concentrations were determined. The glucose infusion rate (GIR) space was adjusted to maintain glucose levels of 100-110 mg/dl.\nMale Wistar rats weighing 200-300 gm were catheterized as described in FIG. 5. […] After 30 minutes, insulin (40 mU/kg/min) and 50% dextrose were added to the intravenous infusion. Blood was sampled through the arterial line every 5 min and the dextrose infusion rate was adjusted to maintain plasma glucose levels between 105-115 mg/dL. GIR represents the mean glucose infusion rate during the final 30 minutes of each 2 hour clamp experiment. Results represent the mean±SEM from 3-5 rats per group. [* indicates […]]\nas §4\nPeripheral insulin sensitivity in rats was assessed by the euglycemic hyperinsulinemic clamp technique. Venous and arterial catheters were surgically inserted into the animals under anesthesia. At least 4 d prior to the initiation of experimental treatments catheters were inserted into both jugular vein and carotid artery locations. Following a 12 hour fast, animals were infused with insulin (40 mU/kg/min) and 50% dextrose in water through the venous catheter. Blood was sampled every 5-10 min through the arterial catheter for serum glucose determinations. The rate of glucose infusion (Glucose Infusion Rate, GIR) was adjusted as necessary to maintain serum glucose at 100-110 mg/dl (FIGS. 5A, 5B, 5C).\nInsulin sensitivity was assessed by the average glucose infusion rate required to maintain euglycemia after equilibrium had been established."}, "Glut4 [5]": {"tested_on": "Glut4", "test": "Immunoblot of Glut4 content in PM and LDM fractions of 3T3-L1 adipocytes (translocation)", "conditions": "indinavir-treated cells, 100 μM for 4 h"}, "Glut1 [6]": {"tested_on": "Glut1", "test": "Immunoblot of Glut1 content in PM and LDM fractions of 3T3-L1 adipocytes (translocation)", "conditions": "indinavir-treated cells, 100 μM for 4 h"}, "[7]": {"tested_on": "insulin receptor (IR), IRS-1 and Akt phosphorylation", "test": "Immunoblot of insulin signaling (IR, IRS-1, Akt phosphorylation) in 3T3-L1 adipocytes", "format": "cell-based", "conditions": "100 μM for 4 h, 1 μM insulin 20 min", "quoted_text": "Cells were further incubated for 20 min with or without 1 μM insulin, and subcellular fractions were subsequently isolate. Plasma membrane (PM), low density microsomal (LDM), and cytosolic (CYT) fractions were subjected to immunoblot analysis using anti-phosphotyrosine antibodies.\nWhole cell lysates from 3T3-L1 adipocytes from samples treated as described above were subjected to immunoblot analysis using anti-phospo Akt antibodies, which recognize Akt phosphorylated on threonine 308 and serine 473."}}}
{"smiles": "CC(C)CN(C[C@@H](O)[C@H](Cc1ccccc1)NC(=O)O[C@H]1CCOC1)S(=O)(=O)c1ccc(N)cc1", "note": "[amprenavir]", "values": [{"measurement": "inhibition at 50 µM", "setting": "Glut4 [1]", "result": 54, "unit": "%"}, {"measurement": "effect on insulin-stimulated glucose uptake relative to indinavir", "setting": "3T3-L1 adipocytes", "result": "comparable to that of indinavir"}]}
{"smiles": "CC(C)(C)NC(=O)[C@@H]1CN(Cc2cccnc2)CCN1C[C@@H](O)C[C@@H](Cc1ccccc1)C(=O)N[C@H]1c2ccccc2C[C@H]1O", "note": "[indinavir]", "values": [{"measurement": "blood glucose concentration at t=30 min", "setting": "[2]; 10 mg/kg i.p. together with dextrose 2 g/kg i.p., control 195±15, p<0.05", "result": "241 ± 11", "unit": "mg/dL"}, {"measurement": "peak plasma glucose concentration", "setting": "[2]; 15 mg/kg i.v. 5 min prior to glucose 2 gm/kg i.p., control 311±30", "result": "407 ± 25", "unit": "mg/dL"}, {"measurement": "effect on Glut1 activity in Xenopus oocytes", "setting": "Glut1 [3]", "result": "no effect"}, {"measurement": "reduction in peripheral insulin sensitivity (average GIR) compared with controls", "setting": "[4]; 0.3 mg/kg/min", "result": 15, "unit": "%"}, {"measurement": "reduction in peripheral insulin sensitivity (average GIR) compared with controls", "setting": "[4]; 0.5 mg/kg/min", "result": 40, "unit": "%"}, {"measurement": "time to restoration of insulin sensitivity to baseline after stopping infusion", "setting": "[4]; after stopping indinavir infusion", "result": "≤ 4", "unit": "h"}, {"measurement": "decrease in GIR required to maintain euglycemia", "setting": "[4]; i.v. infusion 0.3 mg/kg/min", "result": 20, "unit": "%"}, {"measurement": "decrease in GIR required to maintain euglycemia", "setting": "[4]; i.v. infusion 0.5 mg/kg/min, within 90 minutes after start", "result": 50, "unit": "%"}, {"measurement": "increase with insulin of Glut4 content in plasma membrane (PM) fraction", "setting": "Glut4 [5]", "result": 38, "unit": "%"}, {"measurement": "inhibition at 100 µM", "setting": "Glut4 [1]; 100 μM (maximum dose tested)", "result": 45, "unit": "%"}, {"measurement": "increase with insulin of Glut1 content in plasma membrane (PM) fraction", "setting": "Glut1 [6]", "result": 63, "unit": "%"}, {"measurement": "IR autophosphorylation and tyrosine phosphorylation of IRS-1", "setting": "[7]", "result": "occurred normally"}, {"measurement": "effect on insulin-stimulated phosphorylation of Akt on threonine 308 or serine 473", "setting": "[7]", "result": "no effect"}, {"measurement": "inhibition at 10 µM", "setting": "3T3-L1 adipocytes; Mus musculus, 3T3-L1, 10 μM, added 6 min prior to assay, 1 μM insulin, p<0.0001, read-out: inhibition of insulin-stimulated glucose uptake", "result": 26, "unit": "%"}, {"measurement": "inhibition at 100 µM", "setting": "3T3-L1 adipocytes; Mus musculus, 3T3-L1, 100 μM, added 6 min prior to assay, 1 μM insulin for 20 min, read-out: inhibition of insulin-stimulated glucose uptake", "result": 63, "unit": "%"}, {"measurement": "effect on basal glucose uptake", "setting": "3T3-L1 adipocytes; 20 μM", "result": "modest increase"}, {"measurement": "effect on basal glucose uptake", "setting": "3T3-L1 adipocytes; 10-100 μM", "result": "largely unaffected"}, {"measurement": "extent of inhibition of transport activity when added before or after 20 min of insulin stimulation", "setting": "3T3-L1 adipocytes; data not shown", "result": "did not change"}, {"measurement": "time to restoration of normal insulin-responsive glucose uptake after removal of drug", "setting": "3T3-L1 adipocytes; data not shown", "result": "≤ 30", "unit": "min"}]}
{"smiles": "CC(C)c1nc(CN(C)C(=O)N[C@H](C(=O)N[C@@H](Cc2ccccc2)C[C@H](O)[C@H](Cc2ccccc2)NC(=O)OCc2cncs2)C(C)C)cs1", "note": "[ritonavir]", "values": [{"measurement": "inhibition at 50 µM", "setting": "Glut4 [1]", "result": 42, "unit": "%"}, {"measurement": "effect on insulin-stimulated glucose uptake relative to indinavir", "setting": "3T3-L1 adipocytes", "result": "comparable to that of indinavir"}]}
